Measurements reported in patent US20130059772A1, “Use of Repeat Sequence Protein Polymers in Personal Care Compositions” (DANISCO US INC., priority 2003, published 2013).

Columns and labels:
[1] = Isoelectric point determination (IEF gel); format: physicochemical
Description: In this Example, experiments performed to determine the isoelectric point and cloud point of SELP47K (Example 1) are described. The isoelectric point of SELP47K was determined by electrophoresing 5 mg/ml SELP47K solution using Isoelectric Focusing Electrophoresis (IEF) gel and Novex electrophoresis apparatus along with protein standards markers.

[2] = test system: facial skin; assay: Skin efficacy study: Chromameter a* (skin redness); format: in vivo, human
From the text: Eleven impaneled subjects (age 35-70 years) showing clear signs of facial skin aging were provided with a non-moisturizing soap, (AVEENO®), one week prior to the study and were instructed to use the provided soap to wash the face and were required to refrain from excessive UV exposure. After a seven-day conditioning phase, subjects were acclimated to the ambient temperature and humidity for thirty minutes. One side of the face of each subject was designated as the measurement side by random selection by computer. After 30-minute acclimation period, baseline digital photographs were taken, and instrumental measurements, skin replica samples and visual evaluations were made. Photographs were taken, with a Canfield Scientific Camera, of the full face, the periorbital area, and the temporal side of eye. Chromameter (Model CR300, Minolta) measurements were taken from the periorbital area directly under the eye (Chardon et al., Int. J. Cosmet. Sci., 13:191-208 [1991]). Silflo replicas (CuDerm Corporation, Dallas, Tx) were made from the periorbital area adjacent to the temporal side of the eye (Grove et al., J. Am. Acad. Dermatol., 21:631-637 [1998]; and Sun et al 1997 IFSCC Conference, Mexico). […]
Chromometer values for L*, a*, and b* were read and total color value, E, was calculated for each subject. […]

[3] = test system: facial skin; assay: Skin efficacy study: image analysis of Silflo replicas (fine line factors); format: in vivo, human
From the text: Eleven impaneled subjects (age 35-70 years) showing clear signs of facial skin aging were provided with a non-moisturizing soap, ([…]®), one week prior to the study and were instructed to use the provided soap to wash the face and were required to refrain from excessive UV exposure. After a seven-day conditioning phase, subjects were acclimated to the ambient temperature and humidity for thirty minutes. One side of the face of each subject was designated as the measurement side by random selection by computer. After 30-minute acclimation period, baseline digital photographs were taken, and instrumental measurements, skin replica samples and visual evaluations were made. Photographs were taken, with a Canfield Scientific Camera, of the full face, the periorbital area, and the temporal side of eye. Chromameter (Model CR300, Minolta) measurements were taken from the periorbital area directly under the eye (Chardon et al., Int. J. Cosmet. Sci., 13:191-208 [1991]). Silflo replicas (CuDerm Corporation, Dallas, Tx) were made from the periorbital area adjacent to the temporal side of the eye (Grove et al., J. Am. Acad. Dermatol., 21:631-637 [1998]; and Sun et al […] Conference, Mexico). […] Specifically, the fine line factors, which approximate the number and/or length of facial lines in the 10 evaluated bands of skin replica, were measured. […]

For “SELP47K: silk-elastin repeat sequence protein copolymer, head-[(GAGAGS)2(GVGVP)3GKGVP(GVGP)4(GAGAGS)2]13-tail (SEQ ID NO:19), 886 amino acids”, the Isoelectric Point ([1]; 5 mg/ml solution, IEF gel) was 10.4, the “pI of the protein” value ([1]; stated in production example) was 10.5 and the “Chromameter a* Score, Mean” value ([2]; 5% aqueous solution applied once to face, 30 Minutes Post, baseline mean 11.05) was 10.39. For the same substance, the “decrease in average a* value (redness of the skin)” value ([2]; 5% aqueous solution, 30 minutes post vs baseline, p=0.024) was 6%, the “Fine Line Factors, Mean” value ([3]; 5% aqueous solution applied once to face, 30 Minutes Post, baseline mean 284) was 246 and the “decrease in fine line factors” value ([3]; 5% aqueous solution, 30 minutes after application vs baseline, p=0.05) was 13%.
